# Counter-ions that a name gives are not always drawn. Like-named read-outs stand apart in the source and are kept apart here.
# Columns and labels:
# Assay in all cases: AK assay 384-well format, Prestwick library screening
# P. aeruginosa = assay type: cell-based, Pseudomonas aeruginosa; settings: 50 μM final drug concentration; for fold induction at 50 µM: Pseudomonas aeruginosa, 3 h
# E. cloacae = assay type: cell-based, Enterobacter cloacae; settings: 50 μM final drug concentration; for fold induction at 50 µM: Enterobacter cloacae, 3 h
# K. pneumoniae = assay type: cell-based, Klebsiella pneumoniae; settings: 50 μM final drug concentration; for fold induction at 50 µM: Klebsiella pneumoniae, 3 h
# E. coli = assay type: cell-based, Escherichia coli; settings: 50 μM final drug concentration; for fold induction at 50 µM: Escherichia coli, 3 h
# [1] = tested on: A. baumannii strain 98-37-09; assay type: cell-based, Acinetobacter baumannii; settings: 50 μM final drug concentration; for fold induction at 50 µM: Acinetobacter baumannii, 983709, 3 h
# [2] = tested on: S. aureus strain USA300-0114; assay type: cell-based, Staphylococcus aureus; settings: 50 μM final drug concentration; for fold induction at 50 µM: Staphylococcus aureus, USA300, 3 h
# E. faecium = assay type: cell-based, Enterococcus faecium; settings: 50 μM final drug concentration; for fold induction at 50 µM: Enterococcus faecium, 3 h
# [3] = cutoff for positive-scoring molecules 3-fold increase, read-out: AK-based Prestwick Library Screening Results, P. aeruginosa (fold increase in extracellular AK activity)
# [4] = cutoff for positive-scoring molecules 3-fold increase, read-out: AK-based Prestwick Library Screening Results, E. cloacae (fold increase in extracellular AK activity)
# [5] = cutoff for positive-scoring molecules 3-fold increase, read-out: AK-based Prestwick Library Screening Results, K. pneumoniae (fold increase in extracellular AK activity)
# [6] = cutoff for positive-scoring molecules 3-fold increase, read-out: AK-based Prestwick Library Screening Results, E. coli (fold increase in extracellular AK activity)
# [7] = cutoff for positive-scoring molecules 3-fold increase, read-out: AK-based Prestwick Library Screening Results, A. baumannii (fold increase in extracellular AK activity)
# [8] = cutoff for positive-scoring molecules 3-fold increase, read-out: AK-based Prestwick Library Screening Results, S. aureus (fold increase in extracellular AK activity)
# [9] = cutoff for positive-scoring molecules 3-fold increase, read-out: AK-based Prestwick Library Screening Results, E. faecium (fold increase in extracellular AK activity)
# [10] = planktonic P. aeruginosa, 384-well, cutoff for positive-scoring molecules 3-fold increase, read-out: AK-based Prestwick Library Screening Results: P. aeruginosa (increase in extracellular AK activity)
# [11] = planktonic E. cloacae, 384-well, cutoff for positive-scoring molecules 3-fold increase, read-out: AK-based Prestwick Library Screening Results: E. cloacae (increase in extracellular AK activity)
# [12] = planktonic K. pneumoniae, 384-well, cutoff for positive-scoring molecules 3-fold increase, read-out: AK-based Prestwick Library Screening Results: K. pneumoniae (increase in extracellular AK activity)
# [13] = planktonic E. coli, 384-well, cutoff for positive-scoring molecules 3-fold increase, read-out: AK-based Prestwick Library Screening Results: E. coli (increase in extracellular AK activity)
# [14] = planktonic A. baumannii, 384-well, cutoff for positive-scoring molecules 3-fold increase, read-out: AK-based Prestwick Library Screening Results: A. baumannii (increase in extracellular AK activity)
# [15] = planktonic S. aureus, 384-well, cutoff for positive-scoring molecules 3-fold increase, read-out: AK-based Prestwick Library Screening Results: S. aureus (increase in extracellular AK activity)
# [16] = planktonic E. faecium, 384-well, cutoff for positive-scoring molecules 3-fold increase, read-out: AK-based Prestwick Library Screening Results: E. faecium (increase in extracellular AK activity)
# [17] = planktonic, cutoff for positive-scoring molecules 3-fold increase
molecule,measurement,setting,value
"NC(N)=NOCC[C@H](N)C(=O)O.O.O=S(=O)(O)O [Canavanine sulfate monohydrate (L,+)]","AK-based Prestwick Library Screening Results, P. aeruginosa (fold increase in extracellular AK activity)","P. aeruginosa; planktonic, […]",1.1
same,"AK-based Prestwick Library Screening Results, E. cloacae (fold increase in extracellular AK activity)","E. cloacae; planktonic, […]",1.4
same,"AK-based Prestwick Library Screening Results, K. pneumoniae (fold increase in extracellular AK activity)","K. pneumoniae; planktonic, […]",0.9
same,"AK-based Prestwick Library Screening Results, E. coli (fold increase in extracellular AK activity)","E. coli; planktonic, […]",1.2
same,"AK-based Prestwick Library Screening Results, A. baumannii (fold increase in extracellular AK activity)","[1]; planktonic, […]",1.1
same,"AK-based Prestwick Library Screening Results, S. aureus (fold increase in extracellular AK activity)","[2]; planktonic, […]",1.6
same,"AK-based Prestwick Library Screening Results, E. faecium (fold increase in extracellular AK activity)","E. faecium; planktonic, […]",1.1
Nc1ccc(S(=O)(=O)Nc2ccc(Cl)nn2)cc1 [Sulfachloropyridazine],fold induction at 50 µM,P. aeruginosa; [3],1
same,fold induction at 50 µM,E. cloacae; [4],1.5
same,fold induction at 50 µM,K. pneumoniae; [5],1.1
same,fold induction at 50 µM,E. coli; [6],1
same,fold induction at 50 µM,[1]; [7],2.1
same,fold induction at 50 µM,[2]; [8],1.1
same,fold induction at 50 µM,E. faecium; [9],1
CCCN(CCC)C(=O)C(CCC(=O)O)NC(=O)c1ccccc1 (centres unmarked) [Proglumide],fold induction at 50 µM,P. aeruginosa; [10],1.1
same,fold induction at 50 µM,E. cloacae; [11],1.5
same,fold induction at 50 µM,K. pneumoniae; [12],1.2
same,fold induction at 50 µM,E. coli; [13],1.3
same,fold induction at 50 µM,[1]; [14],1.3
same,fold induction at 50 µM,[2]; [15],1.1
same,fold induction at 50 µM,E. faecium; [16],1
CC(C)[N+](C)(CCOC(=O)C1c2ccccc2Oc2ccccc21)C(C)C [Propantheline bromide],fold induction at 50 µM,"P. aeruginosa; planktonic, cutoff for positive-scoring molecules 3-fold increase, read-out: AK-based Prestwick Library Screening Results, P. aeruginosa (fold increase in extracellular AK activity)",0.9
same,fold induction at 50 µM,"E. cloacae; planktonic, cutoff for positive-scoring molecules 3-fold increase, read-out: AK-based Prestwick Library Screening Results, E. cloacae (fold increase in extracellular AK activity)",1.3
same,fold induction at 50 µM,"K. pneumoniae; planktonic, cutoff for positive-scoring molecules 3-fold increase, read-out: AK-based Prestwick Library Screening Results, K. pneumoniae (fold increase in extracellular AK activity)",0.8
same,fold induction at 50 µM,"E. coli; planktonic, cutoff for positive-scoring molecules 3-fold increase, read-out: AK-based Prestwick Library Screening Results, E. coli (fold increase in extracellular AK activity)",0.9
same,fold induction at 50 µM,"[1]; planktonic, cutoff for positive-scoring molecules 3-fold increase, read-out: AK-based Prestwick Library Screening Results, A. baumannii (fold increase in extracellular AK activity)",1
same,fold induction at 50 µM,"[2]; planktonic, cutoff for positive-scoring molecules 3-fold increase, read-out: AK-based Prestwick Library Screening Results, S. aureus (fold increase in extracellular AK activity)",0.8
same,fold induction at 50 µM,"E. faecium; planktonic, cutoff for positive-scoring molecules 3-fold increase, read-out: AK-based Prestwick Library Screening Results, E. faecium (fold increase in extracellular AK activity)",0.8
C[C@]12CC[C@H]3[C@@H](CCC4=CC(=O)CC[C@@H]43)[C@@H]1CC[C@@H]2O [Nandrolone],fold induction at 50 µM,"P. aeruginosa; planktonic P. aeruginosa, […], read-out: AK-based Prestwick library screening result, P. aeruginosa (fold increase in extracellular AK activity)",0.9
same,fold induction at 50 µM,"E. cloacae; planktonic E. cloacae, […], read-out: AK-based Prestwick library screening result, E. cloacae (fold increase in extracellular AK activity)",1
same,fold induction at 50 µM,"K. pneumoniae; planktonic K. pneumoniae, […], read-out: AK-based Prestwick library screening result, K. pneumoniae (fold increase in extracellular AK activity)",0.7
same,fold induction at 50 µM,"E. coli; planktonic E. coli, […], read-out: AK-based Prestwick library screening result, E. coli (fold increase in extracellular AK activity)",0.9
same,fold induction at 50 µM,"[1]; planktonic A. baumannii, […], read-out: AK-based Prestwick library screening result, A. baumannii (fold increase in extracellular AK activity)",0.8
same,fold induction at 50 µM,"[2]; planktonic S. aureus, […], read-out: AK-based Prestwick library screening result, S. aureus (fold increase in extracellular AK activity)",0.7
same,fold induction at 50 µM,"E. faecium; planktonic E. faecium, […], read-out: AK-based Prestwick library screening result, E. faecium (fold increase in extracellular AK activity)",1
"CNc1ncnc2c1ncn2[C@@H]1O[C@H](CO)[C@@H](O)[C@H]1O [Compound N6-methyladenosine, N6-methyladenosine]",fold induction at 50 µM,"P. aeruginosa; planktonic P. aeruginosa, cutoff for positive-scoring molecules 3-fold increase, read-out: AK-based Prestwick Library Screening Results, P. aeruginosa (increase in extracellular AK activity)",0.6
same,fold induction at 50 µM,"E. cloacae; planktonic E. cloacae, cutoff for positive-scoring molecules 3-fold increase, read-out: AK-based Prestwick Library Screening Results, E. cloacae (increase in extracellular AK activity)",0.7
same,fold induction at 50 µM,"K. pneumoniae; planktonic K. pneumoniae, cutoff for positive-scoring molecules 3-fold increase, read-out: AK-based Prestwick Library Screening Results, K. pneumoniae (increase in extracellular AK activity)",0.5
same,fold induction at 50 µM,"E. coli; planktonic E. coli, cutoff for positive-scoring molecules 3-fold increase, read-out: AK-based Prestwick Library Screening Results, E. coli (increase in extracellular AK activity)",0.6
same,fold induction at 50 µM,"[1]; planktonic A. baumannii, cutoff for positive-scoring molecules 3-fold increase, read-out: AK-based Prestwick Library Screening Results, A. baumannii (increase in extracellular AK activity)",0.6
same,fold induction at 50 µM,"[2]; planktonic S. aureus, cutoff for positive-scoring molecules 3-fold increase, read-out: AK-based Prestwick Library Screening Results, S. aureus (increase in extracellular AK activity)",0.5
same,fold induction at 50 µM,"E. faecium; planktonic E. faecium, cutoff for positive-scoring molecules 3-fold increase, read-out: AK-based Prestwick Library Screening Results, E. faecium (increase in extracellular AK activity)",0.9
CN[C@@H]1[C@H](O[C@H]2[C@H](O[C@H]3[C@H](O)[C@@H](O)[C@H](NC(=N)N)[C@@H](O)[C@@H]3NC(=N)N)O[C@@H](C)[C@]2(O)CO)O[C@@H](CO)[C@H](O)[C@H]1O [Dihydrostreptomycin sulfate],fold induction at 50 µM,P. aeruginosa; [10],0.9
same,fold induction at 50 µM,E. cloacae; [11],1.3
same,fold induction at 50 µM,K. pneumoniae; [12],0.7
same,fold induction at 50 µM,E. coli; [13],1.2
same,fold induction at 50 µM,[1]; [14],1.2
same,fold induction at 50 µM,[2]; [15],1.2
same,fold induction at 50 µM,E. faecium; [16],1
Nc1[nH]c(=O)ncc1F [Flucytosine],fold induction at 50 µM,P. aeruginosa; [3],1.1
same,fold induction at 50 µM,E. cloacae; [4],1.8
same,fold induction at 50 µM,K. pneumoniae; [5],0.8
same,fold induction at 50 µM,E. coli; [6],1.1
same,fold induction at 50 µM,[1]; [7],1.2
same,fold induction at 50 µM,[2]; [8],1.1
same,fold induction at 50 µM,E. faecium; [9],0.9
Beta-Escin,"AK-based Prestwick Library Screening Results, P. aeruginosa (fold increase in extracellular AK activity)",P. aeruginosa; [17],0.7
same,"AK-based Prestwick Library Screening Results, E. cloacae (fold increase in extracellular AK activity)",E. cloacae; [17],1.4
same,"AK-based Prestwick Library Screening Results, K. pneumoniae (fold increase in extracellular AK activity)",K. pneumoniae; [17],0.7
same,"AK-based Prestwick Library Screening Results, E. coli (fold increase in extracellular AK activity)",E. coli; [17],0.9
same,"AK-based Prestwick Library Screening Results, A. baumannii (fold increase in extracellular AK activity)",[1]; [17],0.8
same,"AK-based Prestwick Library Screening Results, S. aureus (fold increase in extracellular AK activity)",[2]; [17],0.8
same,"AK-based Prestwick Library Screening Results, E. faecium (fold increase in extracellular AK activity)",E. faecium; [17],0.9
Cc1scc2c1N(C(=O)CN1CCN(C)CC1)c1ccccc1NC2=O [Telenzepine dihydrochloride],fold induction at 50 µM,P. aeruginosa; [10],1.2
same,fold induction at 50 µM,E. cloacae; [11],1.4
same,fold induction at 50 µM,K. pneumoniae; [12],1
same,fold induction at 50 µM,E. coli; [13],1.5
same,fold induction at 50 µM,[1]; [14],1.6
same,fold induction at 50 µM,[2]; [15],1.3
same,fold induction at 50 µM,E. faecium; [16],1.1
CN(C)CCC=C1c2ccccc2CCc2ccccc21.Cl [Amitryptiline hydrochloride],AK-based Prestwick Library Screening Results: P. aeruginosa (increase in extracellular AK activity),"P. aeruginosa; planktonic P. aeruginosa, 384-well, […]",1.0
same,AK-based Prestwick Library Screening Results: E. cloacae (increase in extracellular AK activity),"E. cloacae; planktonic E. cloacae, 384-well, […]",1.8
same,AK-based Prestwick Library Screening Results: K. pneumoniae (increase in extracellular AK activity),"K. pneumoniae; planktonic K. pneumoniae, 384-well, […]",1.1
same,AK-based Prestwick Library Screening Results: E. coli (increase in extracellular AK activity),"E. coli; planktonic E. coli, 384-well, […]",1.2
same,AK-based Prestwick Library Screening Results: A. baumannii (increase in extracellular AK activity),"[1]; planktonic A. baumannii, 384-well, […]",1.3
same,AK-based Prestwick Library Screening Results: S. aureus (increase in extracellular AK activity),"[2]; planktonic S. aureus, 384-well, […]",1.4
same,AK-based Prestwick Library Screening Results: E. faecium (increase in extracellular AK activity),"E. faecium; planktonic E. faecium, 384-well, […]",1.0

# Source: patent publication US10004701B2, “Methods and compositions for treating infection” (UNIVERSITY OF ROCHESTER, priority 2012, dated 2018)
